Earlier results as cited in patent US20050096390A1 (priority 2003, published 2005).

Columns and labels:
[1] = pH of 7.0
[2] = 160 mg fenofibrate tablets, typical average blood plasma sample

Structure (SMILES)	partition coefficient (octanol/water) [1]	solubility in acetone, acetonitrile, chloroform, and ether (acetone, acetonitrile, chloroform, ether)	solubility in isopropanol (isopropanol)	solubility in methanol (methanol) [mg/mL]	solubility in water	AUC0-24 of fenofibrate [2]
CC[C@H](C)C(=O)O[C@H]1C[C@H](O)C=C2C=C[C@H](C)[C@H](CC[C@@H](O)C[C@@H](O)CC(=O)[O-])[C@H]21.[Na+] (relative stereo) [Pravastatin sodium, 1-naphthalene-heptanoic acid, 1,2,6,7,8,8a-hexahydro-(beta),(beta),6-trihydroxy-2-methyl-8-(2-methyl-1-oxobutoxy)-, monosodium salt, [1S-[1(alpha)((beta)S*,(beta)S*),2(alpha),6(alpha), 8(beta)(R*),8a(alpha)]]-]	0.59	practically insoluble	slightly soluble	> 300	> 300 mg/mL	–
CC(C)OC(=O)C(C)(C)Oc1ccc(C(=O)c2ccc(Cl)cc2)cc1 [Fenofibrate]	–	–	–	–	–	about 118,300 h·ng/mL
CC[C@H](C)C(=O)O[C@H]1C[C@H](O)C=C2C=C[C@H](C)[C@H](CC[C@@H](O)C[C@@H](O)CC(=O)O)[C@H]21 [Pravastatin]	–	–	–	–	sparingly soluble	–
